Reference: patent US20080199527A1, “Enteric Coated Azithromycin Multiparticulates” (Pfizer Inc., priority 2004, published 2008)

Assay: Reactivity of enteric coating materials with azithromycin: ester formation in 50/50 mixtures, LC/MS
Type: physicochemical
Settings: 50/50 (w/w) mixture of azithromycin and material, 50° C. and 20% RH
Method: The reactivity of the materials useful for forming enteric coatings listed in Table 1 with azithromycin was determined as follows. […] (CAT), and triacetin, were prepared by adding equal weights of azithromycin and the material to a mortar and mixing with a spatula. […] Azithromycin esters were identified in each of the mixtures by LC/MS detection. […] The sample solutions were then filtered with a 0.45 μm nylon syringe filter. The sample solutions were then analyzed by HPLC using a Hypersil BDS C18 4.6 mm×250 mm (5 μm) HPLC column on a Hewlett Packard HP1100 liquid chromatograph. The mobile phase employed for sample elution was a gradient of isopropyl alcohol and 25 mM ammonium acetate buffer (pH approximately 7) as follows: initial conditions of 50/50 (v/v) isopropyl alcohol/ammonium acetate; the isopropyl alcohol percentage was then increased to 100% over 30 minutes and held at 100% for an additional 15 minutes. The flow rate was 0.80 mL/min. The method used a 75 μL injection volume and a 43° C. column temperature. A Finnigan LCQ Classic mass spectrometer was used for detection. […] Azithromycin ester values were calculated from the MS peak areas based on an external azithromycin standard. […] The results of this analysis are shown below as are the measured rates of ester formation (Re) at 50° C.

Re at 50° C. (rate of ester formation): 6.5 × 10^−2 wt %/day
Concentration of Azithromycin Esters (storage time 10 days): 0.65 wt %
SMILES: CC(=O)OCC(COC(C)=O)OC(C)=O [Triacetin, triacetin]
